The source of these data is PubChem BioAssay (NCI).

What all share (experiment): DTP human tumour cell line panel, 48 h
In experiment [1] the test system is SW-620 colon.
Experiment [2] relates to M14 melanoma.
For experiment [3], the system named is TK-10 renal.
Experiment [4] concerns UO-31 renal.
Experiment [5] concerns IGROV1 ovarian.
Experiment [6] relates to SK-MEL-5 melanoma.
The test system of experiment [7] is ACHN renal.
In experiment [8] the test system is HOP-62 NSCLC.
For experiment [9], the system named is CAKI-1 renal.
Experiment [10] deals with 786-0 renal.

Where “and” joins values, the source holds several entries; their conditions need not be identical. Identical values can stand only once.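 A five-concentration, 48-hour dose response in 96-well plates underlies each endpoint, interpolated linearly between surrounding concentrations. GI50: concentration for 50% inhibition of growth. Definition used: TGI = concentration required for complete inhibition of growth.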

As for `CC(=Nc1ccc(S(N)(=O)=O)cc1)c1c(O)[nH]c2ccccc12`, the GI50 – broadly, the concentration that inhibits growth by half – was > 18.5 µM in experiment [1]; > 25 µM in experiment [2]; > 25 µM in [3]; 7.37 µM in experiment [4]; > 25 µM in [5]; > 25 µM in [6]. Moreover, the GI50 in [7] is > 25 µM; in [8], > 14.5 µM; in experiment [9] it was 17.1 µM; in experiment [10], > 25 µM. In addition, the TGI in [1], in experiment [2], in [3], in experiment [4], in experiment [5] and in experiment [6] was > 25 µM throughout. Moreover, the total growth inhibition concentration (TGI) in experiment [7], in experiment [8], in experiment [9] and in experiment [10] was > 25 µM in each case.
On to `Cc1ccc(-n2nc(C(C)(C)C)cc2NC(=O)NCc2cc(F)ccc2Oc2ccc3c(cnn3CCO)c2)cc1`, for which the GI50 is > 10 µM and 6.34 µM in experiment [1]; 0.649 µM and 1.31 µM in experiment [2]; > 10 µM and 10.8 µM in experiment [3]; 1.33 µM and 2.76 µM in [4]; 2.59 µM and 4.69 µM in experiment [5]; 2.39 µM and 3.15 µM in [6]. Further, the GI50 was 4.3 µM and 2.79 µM in experiment [7]; > 10 µM and 8.95 µM in [8]; 9.61 µM and 6.5 µM in experiment [9]; > 10 µM and 8.58 µM in experiment [10]. For the same molecule, the TGI – broadly, the concentration giving total growth inhibition – in experiment [1] was > 100 µM; in [2] it was > 28.5 µM; in experiment [3], > 91.9 µM; in experiment [4], > 55.5 µM; in experiment [5] it was > 100 µM; in experiment [6], > 10 µM and 13.2 µM. Besides, the TGI is > 56.2 µM in experiment [7], > 81.5 µM in experiment [8], > 100 µM in experiment [9] and > 100 µM in experiment [10].
In the case of `[2H]c1nc(=Nc2cc(NC(=O)C=C)c(N(C)CCN(C)C)cc2OC)[nH]c(-c2cn(C([2H])([2H])[2H])c3ccccc23)c1[2H]`, the GI50 was 1.86 µM in experiment [1]; 1.67 µM in [2]; 0.0802 µM in experiment [3]; 0.943 µM in [4]; 0.122 µM in experiment [5]; 1.64 µM in [6]. The GI50 in experiment [7] is 0.0836 µM; in experiment [8], 4.25 µM; in [9], 0.503 µM; in experiment [10], 1.34 µM. The TGI amounted to 3.87 µM in [1]; 3.23 µM in experiment [2]; 3.8 µM in experiment [3]; 2.25 µM in [4]; 2.04 µM in experiment [5]; 3 µM in experiment [6]. The TGI in experiment [7] stood at 1.65 µM; in [8] it was 20.7 µM; in experiment [9], 1.89 µM; in [10], 2.68 µM.
`C[C@]12C/C(=C/O)C(=O)C(O)=C1CC[C@@H]1C2CC[C@@]2(C)C1CC[C@@H]2O` (stereo not given in full): the TGI in experiment [1] is > 100 µM; in [2], 38.1 µM; in experiment [3] it was > 100 µM; in experiment [4] it was 31.3 µM; in experiment [5], 46 µM; in experiment [6] it was 42.9 µM. The TGI in experiment [7] was 72.2 µM; in [8] it was > 100 µM; in experiment [9] it was 76.6 µM; in experiment [10], 87.5 µM.
As to `CCn1c(-c2nonc2N)nc2ccncc21`, the GI50 in experiment [1], in experiment [2], in experiment [3], in experiment [4], in experiment [5] and in experiment [6] was > 25 µM in each case. The GI50 in experiment [7], in experiment [8], in experiment [9] and in [10] was > 25 µM each time. For the same molecule, the TGI in [1], in experiment [2], in experiment [3], in experiment [4], in [5] and in experiment [6] was > 25 µM each time. Besides, the TGI in experiment [7], in experiment [8], in [9] and in experiment [10] was > 25 µM each time.
As for `COc1ccc2c(NCCCCCCNc3c4ccccc4nc4cc(OC)ccc34)c3ccccc3nc2c1`, the TGI in experiment [1] turned out to be 1.08 µM; in experiment [2], 1.23 µM; in experiment [3] it was 4.56 µM; in experiment [4], 37.5 µM; in experiment [5] it was 0.339 µM; in experiment [6], 5.76 µM. Moreover, the TGI in [7] is 1.01 µM; in experiment [8], 0.946 µM; in experiment [9], 3.39 µM; in [10], 1.3 µM.
Take `COc1c(O)c(OC)c2oc(-c3ccc(O)cc3)c(OC)c(=O)c2c1O`: the TGI was > 100 µM in experiment [1]; > 100 µM in experiment [2]; > 100 µM in [3]; > 100 µM in experiment [4]; 51.4 µM in [5]; > 100 µM in experiment [6]. Also, the TGI in experiment [7] was > 100 µM; in experiment [8] it was 94.9 µM; in experiment [9] it was > 100 µM; in experiment [10], 86.3 µM.
On to `COc1ccc(F)c(F)c1C(=O)c1cnc(NC2CCN(S(C)(=O)=O)CC2)nc1N`, for which the GI50 in [1] was 0.183 µM and 0.108 µM; in experiment [2], 1.48 µM and 0.917 µM; in experiment [3], 0.493 µM and 0.333 µM; in [4] it was 0.779 µM and 0.36 µM; in experiment [5], 1.06 µM and 0.387 µM; in experiment [6], 0.369 µM and 0.399 µM. The GI50 in experiment [7] was 0.439 µM and 0.272 µM; in [8] it was 0.959 µM and 0.45 µM; in experiment [9] it was 1.05 µM and 0.232 µM; in experiment [10], 0.666 µM and 0.388 µM. For the same molecule, the TGI in [1] was > 100 µM; in experiment [2], 9.66 µM and > 10 µM; in experiment [3] it was > 20.3 µM; in experiment [4] it was 6.96 µM and > 9.24 µM; in experiment [5], > 100 µM; in [6], 4.64 µM and > 7.12 µM. Further, the concentration for total growth inhibition (TGI) in [7] was > 100 µM; in [8], > 23.4 µM and 7.93 µM; in experiment [9] it was > 100 µM; in experiment [10], > 27 µM.
